For data set [1], the system named is influenza A virus. Conditions: mice infected with influenza A virus; Yang et al., Eur. Resp. J. 19, 952-958 (2002); cited from earlier work.
The test system of data set [2] is HeLa cells. In kind it is cell-based. Conditions: human, 5 days. The protocol: As a first step an assay on possible toxic effects of AX was performed by incubating HeLa cells with increasing dilutions of the test substance for 5 days.
Cell morphology was checked using a microscope. In addition, an assay for mitochondrial enzyme activity (MTT-assay) was used to evaluate the vitality of cells. No changes in cell morphology and enzyme activity were found at concentrations of 10 μg AX/ml and below.

Data set [3] relates to human rhinovirus subtype 14 (HRV 14). The data set can be described thus: plaque-reduction assay, HeLa cells infected with human rhinovirus subtype 14. The format is cell-based. The protocol:
For the purpose of the study HeLa cells were inocculated with human rhinovirus subtype 14 (HRV 14), isolated from nasopharyngeal secretions. Ambroxol hydrochloride (AX) was chosen as the compound for antiviral testing. The antiviral activity of the test substance was evaluated in the plaque-reduction assay. To test the effect of AX on rhinovirus replication HeLa cells were infected with a multiplicity of infection (MOI) of 0.0002, without (control for 100% infection) or in the presence of AX at concentrations between 0.3 and 10 μg/ml. Infected cell cultures were cultivated for three days. Inhibition of virus plaques was evaluated microscopically and compared with controls.
(In general: In a plaque reduction assay, fewer plaques than in the control indicate reduced infectivity or spread.)

Structures can show the parent of a compound that is named as a salt.

As for `Nc1c(Br)cc(Br)cc1CNC1CCC(O)CC1` (stereo not drawn) [Ambroxol, trans-4-(2-amino-3,5-dibromobenzylamino)-cyclohexanole], the survival rate result in data set [1] was “increase the survival rate”.

As a reminder, the inhibition is how much of the control response was suppressed. For `Nc1c(Br)cc(Br)cc1CN[C@H]1CC[C@H](O)CC1` [Ambroxol hydrochloride], in data set [2], the “concentrations at which no changes in cell morphology were found” value was no more than 10 μg AX/ml and the “concentrations at which no changes in enzyme activity were found” value is recorded as no more than 10 μg AX/ml. Also, in data set [3] (Human rhinovirus sp., 72 h, 0.3 μg/ml, HeLa cells, HRV 14, MOI 0.0002, three days, average of 6 individual tests, read-out: relative inhibition), the inhibition at 0.3 µg/mL worked out at 9.71%. For the same compound, the inhibition at 0.6 µg/mL in data set [3] (Human rhinovirus sp., 72 h, 0.6 μg/ml, HeLa cells, HRV 14, MOI 0.0002, three days, average of 6 individual tests, read-out: relative inhibition) is 14.4%. For the same compound, in data set [3] (Human rhinovirus sp., 72 h, 1.2 μg/ml, HeLa cells, HRV 14, MOI 0.0002, three days, average of 6 individual tests, read-out: relative inhibition), the inhibition at 1.2 µg/mL amounted to 34.3%. Further, the inhibition at 2.5 µg/mL in data set [3] (Human rhinovirus sp., 72 h, 2.5 μg/ml, HeLa cells, HRV 14, MOI 0.0002, three days, average of 6 individual tests, read-out: relative inhibition) was 36.8%. In addition, the inhibition at 5 µg/mL in data set [3] (Human rhinovirus sp., 72 h, 5 μg/ml, HeLa cells, HRV 14, MOI 0.0002, three days, average of 6 individual tests, read-out: relative inhibition) was determined as 63.7%. Also, in data set [3] (Human rhinovirus sp., 72 h, 10 μg/ml, HeLa cells, HRV 14, MOI 0.0002, three days, average of 6 individual tests, read-out: relative inhibition), the inhibition at 10 µg/mL amounted to 70.7%. Further, in data set [3] (conclusion from Table 6), the rhinovirus replication entry was “effectively blocks rhinovirus replication”.
